One assay concerns the target T1, tankyrase 2 (His6-TNKS2) (Homo sapiens, UniProt Q9H2K2).
T1 construct: His6-tankyrase 2 (construct: 934-1166) (His6-TNKS2)
The assay can be described thus: μHTS-TNKS-IWR2 TR-FRET Binding Assay (Example 71), TNKS2. As to conditions: footnote 1: Tankyrase 1 and 2 inhibition assay in Example 71 (TR-FRET). How it is done:
(§1) μHTS-TNKS-IWR2 TR-FRET Binding Assay (10 μL/well in BD1536-well plate, a single point)
Biotin-4-((1S,2R,6S,7R)-3,5-Dioxo-4-aza-tricyclo[5.2.1.0*2,6*]dec-8-en-4-yl)-N-(4-methyl-quinolin-8-yl)-benzamide (Biotin-IWR2): 10 mM Biotin-IWR2 stock in DMSO, stored at −20° C. Positive control: 10 mM 2-(4-Trifluoromethyl-phenyl)-3,5,7,8-tetrahydro-thiopyrano[4,3-d]pyrimidin-4-one (XAV939) in DMSO, stored at −20° C.
(§2) Assay buffer 1a (AB1a) for TNKS dilution: 50 mM Tris, pH 7.4, 100 mM sodium chloride solution, 1 mM magnesium chloride solution, 1 mM DL-dithiothreitol solution, 0.2 mg/mL bovine serum albumin solution, 0.025% NP-40. Assay buffer 1b (AB 1b) for Biotin-IWR2 dilution: 50 mM Tris, pH 7.4, 100 mM sodium chloride solution, 1 mM magnesium chloride solution, 1 mM DL-dithiothreitol solution, 0.2 mg/mL bovine serum albumin solution, 0.05% NP-40 Assay buffer 1c (AB 1c) for compound dilution: 50 mM Tris, pH 7.4, 100 mM sodium chloride solution, 1 mM magnesium chloride solution, 1 mM DL-dithiothreitol solution, 0.2 mg/mL bovine serum albumin solution Assay buffer 2 (AB2) for Eu/APC: 50 mM Tris, pH 7.4, 100 mM sodium chloride solution, 1 mM magnesium chloride solution, 0.2 mg/mL bovine serum albumin solution
(§3) Transfer 3 μL/well of above solution (solution 1,2,3) to an empty assay plate (BD1536-well plate) as follows: TOTAL and cpd wells: Solution 1 (Biotin-IWR2): BLANK wells: Solution 2 (No Biotin-IWR2): POSITIVE CONTROL wells: Solution 3 (Biotin-IWR2XAV939) Transfer 3 μL/well of the above diluted compound solutions or compound dilution buffer to the above assay plate. Add 2 μL/well of 300 nM TNKS stock solution (4) to every well in the above assay plate. Centrifuge the assay plate at 2100 rpm for 2 min. Incubate the assay plate at 26° C. for 30 minutes. Add 2 μL/well 3.5 nMEu/50 nM APC solution (5) to every well in the above assay plate. Centrifuge the assay plate at 2100 rpm for 2 min. Incubate the assay plate at 26° C. for 60 min.
Background: In TR-FRET formats the signal depends on donor and acceptor labels being close together.

Assay [1] deals with T2, PARP1 (His6-PARP1, full length) (Homo sapiens, UniProt P09874).
T2 construct: His6-PARP1 (full length) can be substituted for His6-TNKS 1
Put plainly: TR-FRET Binding Assay (Example 71), PARP1. The following applies: TR-FRET assay of Example 71 with His6-PARP1. How it is done: as §1
Tankyrase 1 (TNKS1): 184.3 μM=5.2 mg/mL His6-TNKS1, MW=28.2 KDa (construct: 1088-1327, 1266M) in 20 mM Tris pH 8, 150 mM NaCl, 10% glycerol, and 0.5 mM TCEP. Alternatively, His6-tankyrase 2 (construct: 934-1166) (His6-TNKS2) or His6-PARP1 (full length) can be substituted for His6-TNKS 1.
as §2
Prepare Biotinylated IWR2 stock solution (3.33× stock) for TOTL and compound wells: 200 nM Biotin-IWR2 in 5% DMSO/AB1b buffer
Prepare BLANK well stock solution: 5% DMSO/AB1b buffer Prepare POSITIVE CONTROL well stock solution (3.33× stock): 200 nM XAV939 in 200 nM Biotin-IWR2/5% DMSO/AB1b buffer Prepare TNKS1 stock solution (5× stock): 300 nM TNKS in AB1a buffer. (Alternatively, use TNKS2 or PARP1 stock solutions.) Prepare Eu/APC stock solution (5× stock): 3.5 nM Eu-SA/50 nM APC-His6Ab in AB2 buffer.
Add 25 μL/well 1.5% DMSO/AB1c buffer in each compound well to the compound concentration at 74 μM in 8.8% DMSO/AB1c buffer or in the 2 μL DMSO CONTROL wells (BLANK, TOTAL and POSITIVE wells) in the compound plate. Transfer 3 μL/well of above solution (solution 1,2,3) to an empty assay plate (BD1536-well plate) as follows: TOTAL and cpd wells: Solution 1 (Biotin-IWR2): BLANK wells: Solution 2 (No Biotin-IWR2): POSITIVE CONTROL wells: Solution 3 (Biotin-IWR2XAV939) Transfer 3 μL/well of the above diluted compound solutions or compound dilution buffer to the above assay plate. Add 2 μL/well of 300 nM TNKS stock solution (4) to every well in the above assay plate. Centrifuge the assay plate at 2100 rpm for 2 min. Incubate the assay plate at 26° C. for 30 minutes. Add 2 μL/well 3.5 nMEu/50 nM APC solution (5) to every well in the above assay plate. Centrifuge the assay plate at 2100 rpm for 2 min. Incubate the assay plate at 26° C. for 60 min. Read the assay plate immediately at excitation wavelength of 330 nm and emission wavelength of […] in time resolved fluorescence mode.
. Representative compound data for the PARP1 assay is in TABLE 2 (below) Values are in μM.

In another assay the target is T3, Tankyrase 1 (TNKS1) (Homo sapiens, UniProt O95271).
T3 construct: His6-TNKS1, MW=28.2 KDa (construct: 1088-1327, 1266M)
Put plainly: μHTS-TNKS-IWR2 TR-FRET Binding Assay (Example 71), TNKS1. As for the experimental part: as §1, §2, §3

The structures appear in SMILES notation. Structures can show the parent of a compound that is named as a salt.

T1 sequence (Q9H2K2 934-1166): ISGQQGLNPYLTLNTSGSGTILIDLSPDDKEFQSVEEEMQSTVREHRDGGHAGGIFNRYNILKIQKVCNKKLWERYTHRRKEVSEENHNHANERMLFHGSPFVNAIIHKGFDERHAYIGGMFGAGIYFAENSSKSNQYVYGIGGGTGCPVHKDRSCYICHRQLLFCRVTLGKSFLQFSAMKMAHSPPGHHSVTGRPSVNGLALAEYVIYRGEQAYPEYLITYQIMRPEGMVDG
T2 sequence (P09874 whole entry, species assumed): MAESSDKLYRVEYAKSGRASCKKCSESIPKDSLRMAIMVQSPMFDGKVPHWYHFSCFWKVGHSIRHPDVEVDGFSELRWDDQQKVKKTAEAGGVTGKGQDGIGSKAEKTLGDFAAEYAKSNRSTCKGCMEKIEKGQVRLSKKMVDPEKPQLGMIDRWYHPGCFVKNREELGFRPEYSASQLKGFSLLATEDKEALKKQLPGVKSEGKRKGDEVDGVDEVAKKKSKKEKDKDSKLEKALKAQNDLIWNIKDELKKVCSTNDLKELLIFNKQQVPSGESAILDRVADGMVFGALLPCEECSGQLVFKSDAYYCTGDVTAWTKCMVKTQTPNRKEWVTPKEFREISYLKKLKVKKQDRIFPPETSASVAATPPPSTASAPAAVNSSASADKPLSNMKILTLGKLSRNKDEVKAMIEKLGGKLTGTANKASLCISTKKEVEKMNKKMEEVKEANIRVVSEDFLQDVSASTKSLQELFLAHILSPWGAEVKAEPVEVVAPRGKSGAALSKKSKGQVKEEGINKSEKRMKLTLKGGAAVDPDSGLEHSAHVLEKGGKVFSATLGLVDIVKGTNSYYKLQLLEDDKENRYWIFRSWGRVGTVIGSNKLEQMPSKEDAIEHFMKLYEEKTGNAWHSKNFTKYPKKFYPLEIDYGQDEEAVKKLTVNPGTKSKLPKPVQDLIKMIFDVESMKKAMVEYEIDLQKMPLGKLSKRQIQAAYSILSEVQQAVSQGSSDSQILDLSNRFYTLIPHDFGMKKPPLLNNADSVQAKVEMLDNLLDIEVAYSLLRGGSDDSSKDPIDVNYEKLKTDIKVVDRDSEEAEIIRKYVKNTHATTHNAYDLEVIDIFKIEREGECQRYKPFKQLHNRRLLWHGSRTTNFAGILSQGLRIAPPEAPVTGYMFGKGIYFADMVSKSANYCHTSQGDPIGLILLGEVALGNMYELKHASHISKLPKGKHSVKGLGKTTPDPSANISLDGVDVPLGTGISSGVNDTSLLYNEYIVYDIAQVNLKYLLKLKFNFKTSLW
T3 sequence (O95271 1088-1327): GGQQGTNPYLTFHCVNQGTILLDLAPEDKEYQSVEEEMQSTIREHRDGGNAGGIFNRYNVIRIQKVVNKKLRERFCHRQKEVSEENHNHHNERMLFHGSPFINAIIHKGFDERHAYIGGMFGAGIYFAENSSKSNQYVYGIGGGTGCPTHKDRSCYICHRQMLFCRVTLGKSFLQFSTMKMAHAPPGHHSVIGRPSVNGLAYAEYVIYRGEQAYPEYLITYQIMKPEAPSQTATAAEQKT

Consider `O=c1[nH]c2c(c3ccccc13)COC(C1CCOC1)C2` (mixture of isomers) [Compound I-59, 2-(Tetrahydro-furan-3-yl)-1,2,4,10-tetrahydro-3-oxa-10-aza-phenanthren-9-one], for which the IC50 (usually the concentration needed to halve the response being measured) stood at 34.4 nM on tankyrase 2 (His6-TNKS2), 280 nM in assay [1] and 33.6 nM on Tankyrase 1 (TNKS1).

The compound `CC(C)C1Cc2[nH]c(=O)c3ccccc3c2CO1` (racemic) [Compound I-2, rac-2-Isopropyl-1,2,4,10-tetrahydro-3-oxa-10-aza-phenanthren-9-one] returned an IC50 in assay [1] of 34.3 nM.

Take `CC(C)C1Cc2[nH]c(=O)c3cccnc3c2CO1` (racemic) [Compound I-4, rac-2-Isopropyl-1,2,4,10-tetrahydro-3-oxa-5,10-diaza-phenanthren-9-one]: the IC50 in assay [1] was 345 nM.

On to `CC(C)C1Cc2[nH]c(=O)c3sccc3c2CO1` (racemic) [Compound I-5, rac-7-Isopropyl-5,6,7,9-tetrahydro-8-oxa-3-thia-5-aza-cyclopenta[a]naphthalen-4-one], for which the IC50 at tankyrase 2 (His6-TNKS2) was 92.1 nM; in assay [1] it was 82.9 nM; on Tankyrase 1 (TNKS1) it was 70.3 nM.

As for `CC(C)C1Cc2[nH]c(=O)c3cc(Cl)ccc3c2CO1` (racemic) [Compound I-6, rac-7-Chloro-2-isopropyl-1,2,4,10-tetrahydro-3-oxa-10-aza-phenanthren-9-one], the IC50 came to 73.4 nM on tankyrase 2 (His6-TNKS2), 58.2 nM in assay [1] and 44 nM on Tankyrase 1 (TNKS1).

Regarding `O=c1[nH]c2c(c3ccccc13)COC(C1CCCC1)C2` (racemic) [Compound I-7, rac-2-Cyclopentyl-1,2,4,10-tetrahydro-3-oxa-10-aza-phenanthren-9-one], the IC50 came out at 43 nM at tankyrase 2 (His6-TNKS2), 119 nM in assay [1] and 34.2 nM at Tankyrase 1 (TNKS1).

With `CC(C)(C)C1Cc2[nH]c(=O)c3ccccc3c2CO1` (racemic) [Compound I-8, rac-2-tert-Butyl-1,2,4,10-tetrahydro-3-oxa-10-aza-phenanthren-9-one], the IC50 in assay [1] was 176 nM.

As for `CC(C)C1Cc2[nH]c(=O)c3ccoc3c2CO1` (racemic) [Compound I-10, rac-7-Isopropyl-5,6,7,9-tetrahydro-1,8-dioxa-5-aza-cyclopenta[a]naphthalen-4-one], the IC50 on tankyrase 2 (His6-TNKS2) was found to be 231 nM; in assay [1], 80.1 nM; at Tankyrase 1 (TNKS1) it was 93.7 nM.

On to `O=c1[nH]c2c(c3ccccc13)COC(CCc1ccccc1)C2` (racemic) [Compound I-13, rac-2-Phenethyl-1,2,4,10-tetrahydro-3-oxa-10-aza-phenanthren-9-one], for which the results for the IC50 (at tankyrase 2 (His6-TNKS2); in assay [1]; on Tankyrase 1 (TNKS1)) were 52.1 nM, 2670 nM and 40.8 nM, respectively.

For the compound `CC(C)C1Cc2[nH]c(=O)c3ccncc3c2CO1` (racemic) [Compound I-14, rac-7-Isopropyl-5,7,8,9-tetrahydro-6-oxa-3,9-diaza-phenanthren-10-one], the IC50 amounted to 204 nM on tankyrase 2 (His6-TNKS2), 680 nM in assay [1] and 97.2 nM on Tankyrase 1 (TNKS1).

With `CC(C)C1Cc2[nH]c(=O)c3cnccc3c2CO1` (racemic) [Compound I-15, rac-7-Isopropyl-5,7,8,9-tetrahydro-6-oxa-2,9-diaza-phenanthren-10-one], the IC50 at tankyrase 2 (His6-TNKS2) is 68.8 nM; in assay [1], over 50000 nM; on Tankyrase 1 (TNKS1), 50.8 nM.

With `CC(C)C1Cc2[nH]c(=O)c3ccc([N+](=O)[O-])cc3c2CO1` (racemic) [Compound I-16, rac-2-Isopropyl-6-nitro-1,2,4,10-tetrahydro-3-oxa-10-aza-phenanthren-9-one], the IC50 worked out at 2700 nM on tankyrase 2 (His6-TNKS2), 35.6 nM in assay [1] and 404 nM on Tankyrase 1 (TNKS1).

The compound `Cc1cccc2c(=O)[nH]c3c(c12)COC(C(C)C)C3` (racemic) [Compound I-17, rac-2-Isopropyl-5-methyl-1,2,4,10-tetrahydro-3-oxa-10-aza-phenanthren-9-one] came in with an IC50 in assay [1] of 107 nM.

Consider `COC(=O)c1ccc2c(=O)[nH]c3c(c2c1)COC(C(C)C)C3` (racemic) [Compound I-19, rac-2-Isopropyl-9-oxo-1,4,9,10-tetrahydro-2H-3-oxa-10-aza-phenanthrene-6-carboxylic acid methyl ester], for which the half-inhibitory concentration (IC50) on tankyrase 2 (His6-TNKS2) amounted to 386 nM; in assay [1], 73.5 nM; at Tankyrase 1 (TNKS1), 84.1 nM.

With `CC1(C2Cc3[nH]c(=O)c4ccccc4c3CO2)CCCCC1` (racemic) [Compound I-20, rac-2-(1-Methyl-cyclohexyl)-1,2,4,10-tetrahydro-3-oxa-10-aza-phenanthren-9-one], the IC50 on tankyrase 2 (His6-TNKS2) came out at 30.5 nM; in assay [1], 61.1 nM; on Tankyrase 1 (TNKS1) it was 25.5 nM.

As to `CC(C)(C)OC(=O)N1CCC(C2Cc3[nH]c(=O)c4ccccc4c3CO2)CC1` (racemic) [Compound I-21, rac-4-(9-Oxo-1,4,9,10-tetrahydro-2H-3-oxa-10-aza-phenanthren-2-yl)-piperidine-1-carboxylic acid tert-butyl ester], the IC50 at tankyrase 2 (His6-TNKS2) was 46.7 nM; in assay [1], 15.9 nM; on Tankyrase 1 (TNKS1) it was 33.5 nM.

As for `O=c1[nH]c2c(c3ccccc13)COC(C1CCNCC1)C2` (racemic) [Compound I-22, rac-2-Piperidin-4-yl-1,2,4,10-tetrahydro-3-oxa-10-aza-phenanthren-9-one, trifluoroacetate], the IC50 was 109 nM at tankyrase 2 (His6-TNKS2), over 50000 nM in assay [1] and 88.8 nM on Tankyrase 1 (TNKS1).

In assay [1], `CC(C)(CO)C1Cc2[nH]c(=O)c3ccccc3c2CO1` (racemic) [Compound I-30, rac-2-(2-Hydroxy-1,1-dimethyl-ethyl)-1,2,4,10-tetrahydro-3-oxa-10-aza-phenanthren-9-one] had an IC50 of 53.3 nM.

For the compound `O=C(C1COC1)N1CCC(C2Cc3[nH]c(=O)c4ccccc4c3CO2)CC1` (racemic) [Compound I-52, rac-2-[1-(Oxetane-3-carbonyl)-piperidin-4-yl]-1,2,4,10-tetrahydro-3-oxa-10-aza-phenanthren-9-one], in assay [1], the IC50 is 32.8 nM.

In assay [1], `Cc1cccc2c(=O)[nH]c3c(c12)CO[C@H](C(C)(C)CO)C3` (single isomer, unassigned) [Compound I-66] displayed an IC50 of 89.7 nM.

Take `Cc1cccc2c(=O)[nH]c3c(c12)CO[C@@H](C(C)(C)CO)C3` (single isomer, unassigned) [Compound I-67]: the IC50 in assay [1] stood at 70 nM.

`CS(=O)(=O)N1CCC(C2Cc3[nH]c(=O)c4ccccc4c3CO2)C1` (stereo not drawn) [Compound I-39, 2-(1-Methanesulfonyl-pyrrolidin-3-yl)-1,2,4,10-tetrahydro-3-oxa-10-aza-phenanthren-9-one] displayed an IC50 in assay [1] of 36.5 nM.
